Source: patent US10077289B2, “Cyclosporins modified on the MeBmt sidechain by heterocyclic rings” (priority 2015, dated 2018)
Values after ≈ are worked out from the molar mass of the structure shown. Read-outs that look alike come from different tables or passages of the source.

Legend:
[1] = target: calcineurin/cyclophilin A (Homo sapiens (Human), UniProt P62937+P63098+Q08209); assay: Calcineurin Phosphatase (CaN) Assay (+CypA); type: biochemical
From the text: Calcineurin Phosphatase (CaN) Assay
The calcineurin phosphatase assay is a means for estimating the immunosuppressive potential of a test compound. Calcineurin is a serine-threonine protein phosphatase that on activation dephosphorylates members of the nuclear factor of activated T cells (NFAT), which are important in T lymphocyte activation.
To investigate the immunosuppressive potential of exemplary compounds of Formula I, which are cyclosporin analogs, their ability to inhibit calcineurin activity was measured in the presence and absence of Cyp A.
The CaN assay kit used is based on a colorimetric assay for measuring calcineurin phosphatase activity, and it is commercially available (Enzo Life Sciences and Calbiochem). Calmodulin is also required for calcineurin activity and RII phosphopeptide is used as an efficient peptide substrate for calcineurin. […] The detection of free phosphate released is based on the classic Malachite green assay.
Enzo Life Sciences CaN Assay Kit: BML-AK804
Malachite Green: BIOMOL Green™ reagent
Calmodulin (Human, recombinant): was thawed on ice, diluted 1:50 with 2× assay buffer, and then stored on ice.
Calcineurin: was thawed quickly, stored on ice immediately, diluted 1:12.5 with 1× assay buffer, and then stored on ice.
R-II Substrate: 915 μL ultrapure water (UPW) was added to the 1.5 mg vial substrate to give a final concentration of 0.75 mM.
Inhibitors: 2.5 mM inhibitor in 100% DMSO.
Cyp A: recombinant human CypA (Sigma C3805), 1 mg/ml; Recombinant 6-His tagged CypA prepared by the University of Edinburgh was also used.
Inhibitor dilutions: inhibitor compounds were diluted in UPW in polypropylene low-binding 96 well plates at 5× the final assay concentration.
Assay Setup: using the half area 96 well plates supplied with the kit, 10 μl UPW was added to duplicate wells to provide the non-inhibited control. 10 μl of the inhibitor or the inhibitor/Cyp A complex was added to the appropriate sample wells. 25 μl of the 2× assay buffer with CaM was added to all wells, then 5 μl of CaN was added to all wells (40 U per well final concentration) except duplicate ‘no calcineurin blank’ wells to which 5 μL 1× assay buffer was added. The assay plate was placed in an oven at 30° C. for 15 minutes to equilibrate to the reaction temperature. The reaction was started by the addition of 10 μl RII-peptide (0.15 mM final concentration). The reaction was allowed to proceed at 30° C. for a time period in which the reaction is linear for about 60 minutes. The reaction was then terminated by adding 100 μl of the Malachite Green reagent. The color was allowed to develop for 15-30 minutes at room temperature before the absorbance at 620 nm was measured using a plate reader (Molecular Devices—SpectraMax M5). The data were analyzed by subtracting ‘no Calcineurin blank’ from all the absorbance readings and plotting the background corrected absorbances against Log10 inhibitor concentration. A sigmoidal-dose response curve was fitted to the data using GraphPad Prism Software.
It exerts its immunosuppressive activity by binding to cyclophilin A to form a complex, which then binds to calcineurin and thereby inhibits calcineurin activity.

[2] = target: Human recombinant cyclophilin A (Cyp A) (Homo sapiens (Human), UniProt P62937); assay: Protease-free PPIase assay
Description: Protease-Free PPIase Assay
The protease-free PPIase assay measures the rate of cis to trans conversion of a peptide substrate catalyzed by the enzyme cyclophilin A. Addition of a cyclophilin A inhibitor (e.g., a test compound) slows the catalyzed rate and a Ki value is obtained.
35 mM HEPES pH 7.8, filtered through a 0.2 μm filter. 50 μM DTT was added prior to use each day and then the buffer was stored on ice.
Human recombinant cyclophilin A (Cyp A) (Sigma C3805) enzyme was diluted to 1 μM with enzyme dilution buffer (20 mM HEPES pH 7.8, 40% glycerol, 50 μM DTT and 1 μM BSA) and stored at −20° C.
Succinimide-Ala-Ala-Pro-Phe-p-nitroanilide (SUC-AAPF-pNA) (from Bachem AG, L-1400), 20 mg/ml prepared in 0.5 M LiCl in trifluoroethanol.
The temperature is monitored by the use of a temperature probe. To prevent UV degradation of test compounds, the light below 290 nm was blocked using a glass slide in the light path. 1.5 ml of the assay buffer was put into a 3 ml quartz cuvette and cooled to 10.0±0.1° C. while stirring (vigorous but not so fast as to produce cavitation). The inhibitor was diluted in 100% DMSO, and then added to the assay to a maximum final concentration of 0.5% DMSO in the assay. A blank spectrum was obtained, then 3 μL of enzyme was added (2 nM final concentration) and then 3 μL substrate (60 μM final concentration) added. The absorbance was measured at 330 nm for 300 s or 500 s for blank runs (NOTE: the substrate must be added in one quick injection and the measurements started immediately to minimize mixing errors).
A first order rate equation was fitted to the absorbance data, for each concentration of inhibitor, to obtain the rate constant (the first 10 to 15 seconds were excluded as mixing causes errors in this portion of curve). The catalytic rate was calculated from the enzymatic rate constant minus the background rate constant. An exponential curve was generated using the catalytic rate constants versus the inhibitor concentration to obtain the Ki value for the inhibitor. The Ki value is indicative of the binding affinity between the test compound and cyclophilin A.

[3] = Water Solubility Assay (measured in pH 7.8 buffer); type: physicochemical; conditions: 25 °C, kinetic from dmso stock
Description: Water Solubility Assay (Measured in pH 7.8 Buffer)
The aqueous solubility of a compound of Formula I in buffer (pH 7.8) was measured by recording the onset of precipitation of the compound as a function of increasing concentration. The onset of precipitation, if it occurred, was detected by an increase in absorbance at 650 nm.
Assay Buffer: 35 mM HEPES pH 7.8
Stock solutions of Control and Test Compounds: 10 mM in 100% DMSO.
10 mM stock solutions of control and test compounds were prepared in 100% DMSO.
Assay buffer (247.5 μl) was placed into flat bottomed transparent 96-well plate. For blank samples DMSO (2.5 μl) was added. For test and control samples 2.5 μl of the appropriate DMSO dilution stocks were added to the appropriate well. All test and control compounds were performed in triplicate.
The plates were sealed with adhesive plate seal and shaken at 250 rpm at 25° C. for 18 h on a plate shaker. After incubation the plate seals were taken off and any bubbles observed in wells removed. The plates were read on a SpectraMaxM5 with a 5 s pre-shake at 650 nm. Data files were transferred to the appropriate worksheet and the solubility range of the compounds was calculated from the data. The values shown in the Tables indicate the concentration in μM (micromolar) at which the compound remains in solution.

[4] = in the presence of Cyp A, 1:1 complex with inhibitor, read-out: Calcineurin Phosphatase (CaN) Assay (+CypA) IC50
[5] = read-out: Protease-free PPIase Assay Ki, human recombinant Cyp A, 10 °C
[6] = 35 mM HEPES buffer pH 7.8, aqueous buffer, 35 mM HEPES pH 7.8, 1% DMSO, 18 h, read-out: Water Solubility Assay, concentration at which the compound remains in solution

SMILES: CC[C@H]1NC(=O)[C@@H]([C@H](O)[C@H](C)Cc2nccn2C)N(C)C(=O)[C@@H](C(C)C)N(C)C(=O)[C@@H](CC(C)C)N(C)C(=O)[C@@H](CC(C)C)N(C)C(=O)[C@H](C)NC(=O)[C@@H](C)NC(=O)[C@@H](CC(C)C)N(C)C(=O)[C@@H](C(C)C)NC(=O)[C@H](CC(C)C)N(C)C(=O)[C@@H](C)N(C)C1=O [Compound 1, [(2S,3R,4R)-3-Hydroxy-4-methyl-2-(methylamino)-5-(1-methyl-1H-imidazol-2-yl)-pentanoic acid]^1 [(R)-methyl-Sar]^3 cyclosporin A]
- IC50 [1, 4]: 2700 nM
- Ki [2]: 15 nM
- solubility at 18 h ([3]; pH 7.8, aqueous buffer): 75 to 100 µM (≈ 94.3 to 126 µg/mL)

SMILES: CC[C@H]1NC(=O)[C@@H]([C@H](O)[C@H](C)Cc2nccn2CCN2CCOCC2)N(C)C(=O)[C@@H](C(C)C)N(C)C(=O)[C@@H](CC(C)C)N(C)C(=O)[C@@H](CC(C)C)N(C)C(=O)[C@H](C)NC(=O)[C@@H](C)NC(=O)[C@@H](CC(C)C)N(C)C(=O)[C@@H](C(C)C)NC(=O)[C@H](CC(C)C)N(C)C(=O)[C@@H](C)N(C)C1=O [Compound 2, [(2S,3R,4R)-3-Hydroxy-4-methyl-2-(methylamino)-5-(1-(N-morpholino-ethyl)-1H-imidazol-2-yl)-pentanoic acid]^1 [(R)-methyl-Sar]^3 cyclosporin A]
- IC50 [1]: > 10000 nM
- Ki [2, 5]: 4.6 nM
- solubility at 18 h [3, 6]: > 100 µM

SMILES: CC[C@H]1NC(=O)[C@@H]([C@H](O)[C@H](C)Cc2nccn2CCN2CCCC2)N(C)C(=O)[C@@H](C(C)C)N(C)C(=O)[C@@H](CC(C)C)N(C)C(=O)[C@@H](CC(C)C)N(C)C(=O)[C@H](C)NC(=O)[C@@H](C)NC(=O)[C@@H](CC(C)C)N(C)C(=O)[C@@H](C(C)C)NC(=O)[C@H](CC(C)C)N(C)C(=O)[C@@H](C)N(C)C1=O [Compound 3, [(2S,3R,4R)-3-Hydroxy-4-methyl-2-(methylamino)-5-(1-(N-pyrrolidinyl-ethyl)-1H-imidazol-2-yl)pentanoic acid]^1 [(R)-methyl-Sar]^3 cyclosporin A]
- IC50 [1, 4]: > 10000 nM
- Ki [2, 5]: 8.6 nM
- solubility at 18 h [3, 6]: > 100 µM

SMILES: CC[C@H]1NC(=O)[C@@H]([C@H](O)[C@H](C)Cc2nccn2CCN(C)C)N(C)C(=O)[C@@H](C(C)C)N(C)C(=O)[C@@H](CC(C)C)N(C)C(=O)[C@@H](CC(C)C)N(C)C(=O)[C@H](C)NC(=O)[C@@H](C)NC(=O)[C@@H](CC(C)C)N(C)C(=O)[C@@H](C(C)C)NC(=O)[C@H](CC(C)C)N(C)C(=O)[C@@H](C)N(C)C1=O [Compound 4, [(2S,3R,4R)-5-(1-(N,N-Dimethyl-ethyl)-1H-imidazol-2-yl)-3-hydroxy-4-methyl-2-(methylamino)pentanoic acid]^1 [(R)-methyl-Sar]^3 cyclosporin A]
- IC50 [1, 4]: 6900 nM
- Ki [2, 5]: 5.1 nM
- solubility at 18 h [3, 6]: > 100 µM

SMILES: CC[C@H]1NC(=O)[C@@H]([C@H](O)[C@H](C)Cc2nccn2CCC(F)(F)F)N(C)C(=O)[C@@H](C(C)C)N(C)C(=O)[C@@H](CC(C)C)N(C)C(=O)[C@@H](CC(C)C)N(C)C(=O)[C@H](C)NC(=O)[C@@H](C)NC(=O)[C@@H](CC(C)C)N(C)C(=O)[C@@H](C(C)C)NC(=O)[C@H](CC(C)C)N(C)C(=O)[C@@H](C)N(C)C1=O [Compound 8, [(2S,3R,4R)-3-Hydroxy-4-methyl-2-(methylamino)-5-[3-(3,3,3-trifluoro-propyl)-3H-imidazol-2-yl]-pentanoic acid]^1 [(R)-methyl-Sar]^3 cyclosporin A]
- IC50 [1, 4]: > 10000 nM
- Ki [2, 5]: 7.4 nM

SMILES: CC[C@H]1NC(=O)[C@@H]([C@H](O)[C@H](C)Cc2nc3ccccc3[nH]2)N(C)C(=O)[C@@H](C(C)C)N(C)C(=O)[C@@H](CC(C)C)N(C)C(=O)[C@@H](CC(C)C)N(C)C(=O)[C@H](C)NC(=O)[C@@H](C)NC(=O)[C@@H](CC(C)C)N(C)C(=O)[C@@H](C(C)C)NC(=O)[C@H](CC(C)C)N(C)C(=O)CN(C)C1=O [Compound 10, [(2S,3R,4R)-1-(1H-Benzimidazol-2-yl)-3-hydroxy-4-methyl-2-(methylamino)pentanoic acid]^1 cyclosporin A]
- solubility at 18 h ([3]; pH 7.8, aqueous buffer): 25 to 50 µM (≈ 32 to 63.9 µg/mL)

SMILES: CC[C@H]1NC(=O)[C@@H]([C@H](O)[C@H](C)CCCc2ccc(F)cn2)N(C)C(=O)[C@@H](C(C)C)N(C)C(=O)[C@@H](CC(C)C)N(C)C(=O)[C@@H](CC(C)C)N(C)C(=O)[C@H](C)NC(=O)[C@@H](C)NC(=O)[C@@H](CC(C)C)N(C)C(=O)[C@@H](C(C)C)NC(=O)[C@H](CC(C)C)N(C)C(=O)[C@@H](C)N(C)C1=O [Compound 14, [(2S,3R,4R)-7-(5-Fluoro-pyridin-2-yl)-3-hydroxy-4-methyl-2-(methylamino)-heptanoic acid]^1 [(R)-methyl-Sar]^3 cyclosporin A]
- IC50 [1, 4]: 8750 nM
- Ki [2]: 1.5 nM

SMILES: CC[C@H]1NC(=O)[C@@H]([C@H](O)[C@H](C)CCCc2cn3c(n2)CCCC3)N(C)C(=O)[C@@H](C(C)C)N(C)C(=O)[C@@H](CC(C)C)N(C)C(=O)[C@@H](CC(C)C)N(C)C(=O)[C@H](C)NC(=O)[C@@H](C)NC(=O)[C@@H](CC(C)C)N(C)C(=O)[C@@H](C(C)C)NC(=O)[C@H](CC(C)C)N(C)C(=O)[C@@H](C)N(C)C1=O [Compound 19]
- IC50 [1]: > 10000 nM
- Ki [2, 5]: 5.4 nM

SMILES: CC[C@H]1NC(=O)[C@@H]([C@H](O)[C@H](C)CCCc2ncco2)N(C)C(=O)[C@@H](C(C)C)N(C)C(=O)[C@@H](CC(C)C)N(C)C(=O)[C@@H](CC(C)C)N(C)C(=O)[C@H](C)NC(=O)[C@@H](C)NC(=O)[C@@H](CC(C)C)N(C)C(=O)[C@@H](C(C)C)NC(=O)[C@H](CC(C)C)N(C)C(=O)[C@@H](C)N(C)C1=O [Compound 24]
- solubility at 18 h ([3]; pH 7.8, aqueous buffer): > 100 µM
